# Measured values: patent US20110268807A1, “Biodegradable Microspheres and Methods of Use Thereof” (priority 2008, published 2011)
# Key:
# [1] = Release of atropine from hydrogel in medium at 37° C., static conditions; assay type: physicochemical
# Text: FIG. 16 depicts release rate of atropine from hydrogel. […] Hydrogel for the second release test (B) was soaked in excess drug solution to reach maximum swelling. Almost no drug retention was observed; therefore, the release is approximately zero.
# [2] = Atropine release per cycle (atropine content in filtrate), nanoparticles; assay type: physicochemical; conditions: FIG. 17B
# Text: FIGS. 17A and 17B depict atropine release. […] The first sharp decrease in atropine release would be related to the excess atropine in solution. The slow release characteristic of the second slope would be the drug release associated with nanoparticle degradation.
smiles,measurement,setting,value
CN1[C@@H]2CC[C@H]1C[C@@H](OC(=O)C(CO)c1ccccc1)C2 (stereo partly shown) [atropine],atropine release from hydrogel,"[1]; first preliminary test (A): hydrogel absorbed all of the drug solution, medium at 37° C., static conditions",68%
same,time course of atropine release from hydrogel,"[1]; first preliminary test (A), burst effect",most of which occurred during the first two hours
same,atropine release from hydrogel,"[1]; second release test (B): hydrogel soaked in excess drug solution to maximum swelling, almost no drug retention",approximately zero
same,cumulative release percentage per cycle,[2],all the atropine was release by the seventh cycle
